Source: ChEMBL document CHEMBL2163271, “Antitumor agents 295. E-ring hydroxylated antofine and cryptopleurine analogues as antiproliferative agents: design, synthesis, and mechanistic studies” (J Med Chem, 2012)

System: not listed separately
Assay: Cytotoxicity against human KBVIN cells overexpressing P-gp after 2 hrs by methylene blue staining-based spectrophotometric analysis
Type: functional, cell-based
Settings: not given
Compound `COc1ccc2c3c(c4cc(OC)c(OC)cc4c2c1)C[C@H]1CC[C@H](O)CN1C3` has an IC50 of 3070 nM. For `COc1ccc2c3c(c4cc(OC)c(OC)cc4c2c1)C[C@H]1CCC(=O)CN1C3`, the IC50 was 1480 nM. Compound `COc1ccc2c3c(c4cc(OC)c(OC)cc4c2c1)C[C@H]1C[C@@H](O)CCN1C3` has an IC50 of 78 nM. Compound `COc1ccc2c3c(c4cc(OC)c(OC)cc4c2c1)C[C@H]1[C@H](O)CCN1C3` has an IC50 of 640 nM. With `COc1ccc2c3c(c4cc(OC)c(OC)cc4c2c1)C[C@H]1[C@@H](O)CCCN1C3` the IC50 was 25 nM. With `COc1ccc2c3c(c4cc(OC)c(OC)cc4c2c1)C[C@H]1CC(=O)CN1C3` the IC50 was 430 nM.

System: A549
Assay: Cytotoxicity against human A549 cells after 2 hrs by methylene blue staining-based spectrophotometric analysis
Type: functional, cell-based
Settings: A549, 2 h
`COc1ccc2c3c(c4cc(OC)c(OC)cc4c2c1)C[C@H]1CC[C@H](O)CN1C3` showed an IC50 of 2510 nM. `COc1ccc2c3c(c4cc(OC)c(OC)cc4c2c1)C[C@H]1CCC(=O)CN1C3` showed an IC50 of 910 nM. Work on `COc1ccc2c3c(c4cc(OC)c(OC)cc4c2c1)C[C@H]1C[C@@H](O)CCN1C3` yielded an IC50 of 72 nM. With `COc1ccc2c3c(c4cc(OC)c(OC)cc4c2c1)C[C@H]1[C@H](O)CCN1C3` the IC50 was 270 nM. `COc1ccc2c3c(c4cc(OC)c(OC)cc4c2c1)C[C@H]1[C@@H](O)CCCN1C3` gave an IC50 of 10 nM. With `COc1ccc2c3c(c4cc(OC)c(OC)cc4c2c1)C[C@H]1CC(=O)CN1C3` the IC50 was 290 nM.

System: SK-BR-3
Assay: Cytotoxicity against human SKBR3 cells after 2 hrs by methylene blue staining-based spectrophotometric analysis
Type: functional, cell-based
Settings: SK-BR-3, 2 h
Work on `COc1ccc2c3c(c4cc(OC)c(OC)cc4c2c1)C[C@H]1CC[C@H](O)CN1C3` yielded an IC50 of 6440 nM. In the case of `COc1ccc2c3c(c4cc(OC)c(OC)cc4c2c1)C[C@H]1CCC(=O)CN1C3`, the IC50 is reported as 3340 nM. Work on `COc1ccc2c3c(c4cc(OC)c(OC)cc4c2c1)C[C@H]1C[C@@H](O)CCN1C3` yielded an IC50 of 295 nM.

System: KB
Assay: Cytotoxicity against human KB cells after 2 hrs by methylene blue staining-based spectrophotometric analysis
Type: functional, cell-based
Settings: not given
`COc1ccc2c3c(c4cc(OC)c(OC)cc4c2c1)C[C@H]1CC[C@H](O)CN1C3` showed an IC50 of 2250 nM. `COc1ccc2c3c(c4cc(OC)c(OC)cc4c2c1)C[C@H]1CCC(=O)CN1C3` gave an IC50 of 734 nM. `COc1ccc2c3c(c4cc(OC)c(OC)cc4c2c1)C[C@H]1C[C@@H](O)CCN1C3` gave an IC50 of 43 nM. For `COc1ccc2c3c(c4cc(OC)c(OC)cc4c2c1)C[C@H]1[C@H](O)CCN1C3`, the IC50 was 500 nM. Work on `COc1ccc2c3c(c4cc(OC)c(OC)cc4c2c1)C[C@H]1[C@@H](O)CCCN1C3` yielded an IC50 of 25 nM. Work on `COc1ccc2c3c(c4cc(OC)c(OC)cc4c2c1)C[C@H]1CC(=O)CN1C3` yielded an IC50 of 500 nM.

System: DU-145
Assay: Cytotoxicity against human DU145 cells after 2 hrs by methylene blue staining-based spectrophotometric analysis
Type: functional, cell-based
Settings: DU-145, 2 h
For `COc1ccc2c3c(c4cc(OC)c(OC)cc4c2c1)C[C@H]1CC[C@H](O)CN1C3`, the IC50 was 2250 nM. In the case of `COc1ccc2c3c(c4cc(OC)c(OC)cc4c2c1)C[C@H]1CCC(=O)CN1C3`, the IC50 is reported as 1700 nM. In the case of `COc1ccc2c3c(c4cc(OC)c(OC)cc4c2c1)C[C@H]1C[C@@H](O)CCN1C3`, the IC50 is reported as 59 nM. `COc1ccc2c3c(c4cc(OC)c(OC)cc4c2c1)C[C@H]1[C@H](O)CCN1C3` gave an IC50 of 850 nM. For `COc1ccc2c3c(c4cc(OC)c(OC)cc4c2c1)C[C@H]1[C@@H](O)CCCN1C3`, the IC50 was 33 nM. In the case of `COc1ccc2c3c(c4cc(OC)c(OC)cc4c2c1)C[C@H]1CC(=O)CN1C3`, the IC50 is reported as 710 nM.
